# According to patent publication US20130210664A1, “Methods for the Identification of Methyltransferase Interacting Molecules and for the Purification of Methyltransferase Proteins” (Cellzome AG, priority 2010, published 2013):
# Columns and labels:
# Experiment in all cases: Competition binding bead assay with immobilized compound 6 in cell lysate, iTRAQ LC-MS/MS quantitation
# SETD7 = molecular target: T1, SETD7 (Homo sapiens, UniProt Q8WTS6); details: SETD7 (IPI00028366.2); 200 μM free compound 6; mixed Jurkat and Ramos cell lysates; versus DMSO solvent control
# T1 construct: endogenous in cells; host or cells: Jurkat (ATCC TIB-152) and Ramos (ATCC CRL-1596) cells, mixed lysate
# T1 sequence (Q8WTS6 1-366): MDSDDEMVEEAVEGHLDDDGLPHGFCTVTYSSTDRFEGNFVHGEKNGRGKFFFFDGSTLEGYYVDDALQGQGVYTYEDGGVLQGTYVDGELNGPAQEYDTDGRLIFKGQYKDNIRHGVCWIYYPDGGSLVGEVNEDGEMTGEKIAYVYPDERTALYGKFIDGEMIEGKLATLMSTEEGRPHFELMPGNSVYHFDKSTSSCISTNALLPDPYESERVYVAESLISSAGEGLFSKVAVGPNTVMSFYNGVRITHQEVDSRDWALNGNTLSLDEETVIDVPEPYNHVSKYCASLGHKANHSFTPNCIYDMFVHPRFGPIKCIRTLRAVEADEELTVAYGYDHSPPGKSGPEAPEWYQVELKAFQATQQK
# Method: (§1) To the first aliquot of cell lysate 200 μM of the free compound 6 was added and allowed to bind to proteins in the lysate. Then the affinity matrix with the immobilized compound (Example 1) was added to capture proteins that were not interacting with the previously added free compound. Beads were separated from the lysate and bead bound proteins were eluted in SDS sample buffer and subsequently separated by SDS-Polyacrylamide gel electrophoresis. Suitable gel bands were cut out and subjected to in-gel proteolytic digestion with trypsin. The second lysate aliquot was processed identically, however no free compound was added (DMSO solvent control). Peptides originating from samples 1 and 2 were labeled with iTRAQ reagents (iTRAQ 114 and iTRAQ 116) and the combined samples were analyzed with a nano-flow liquid chromatography system coupled online to a tandem mass spectrometer (LC-MS/MS) experiment followed by iTRAQ reporter ion quantification in the MS/MS spectra (Ross et al., 2004. Mol. Cell. Proteomics 3(12):1154-1169). Further experimental protocols can be found in WO2006/134056 and a previous publication (Bantscheff et al., 2007. Nature Biotechnology 25, 1035-1044).
# (§2) The identified methyltransferases are shown in Table 5 including the percent competition values for the sample to which 200 μM free compound had been added. […]
# SMYD5 = molecular target: T2, SMYD5 (Homo sapiens, UniProt Q6GMV2); details: SMYD5 (IPI00013789.5); 200 μM free compound 6; mixed Jurkat and Ramos cell lysates; versus DMSO solvent control
# T2 construct: endogenous in cells; host or cells: Jurkat (ATCC TIB-152) and Ramos (ATCC CRL-1596) cells, mixed lysate
# T2 sequence (Q6GMV2 1-418): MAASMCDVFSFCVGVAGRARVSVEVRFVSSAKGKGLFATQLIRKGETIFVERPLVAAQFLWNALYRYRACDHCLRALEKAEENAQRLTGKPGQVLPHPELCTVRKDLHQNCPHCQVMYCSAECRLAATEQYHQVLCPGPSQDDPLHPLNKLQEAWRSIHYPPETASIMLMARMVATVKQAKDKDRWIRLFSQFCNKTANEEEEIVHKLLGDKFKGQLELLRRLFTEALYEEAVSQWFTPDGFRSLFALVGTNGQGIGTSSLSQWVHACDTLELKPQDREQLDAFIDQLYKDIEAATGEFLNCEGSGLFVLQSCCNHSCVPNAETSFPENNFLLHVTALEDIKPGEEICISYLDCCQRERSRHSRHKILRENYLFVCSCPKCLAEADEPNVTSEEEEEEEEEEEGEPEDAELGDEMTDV
# Method: as §1, §2
# DPH5 = test system: DPH5; design: species or system human; details: 200 μM free compound 6, mixed Jurkat and Ramos cell lysates, versus DMSO solvent control
# Method: as §1, §2
compound,measurement,setting,value
"NCCCNc1nc(N)c2ncn([C@@H]3O[C@H](CSCC[C@H](N)C(=O)O)[C@@H](O)[C@H]3O)c2n1 [Compound 6, (S)-2-amino-4-((((2S,3S,4R,5R)-5-(6-amino-2-((3-aminopropyl)amino)-9H-purin-9-yl)-3,4-dihydroxytetrahydrofuran-2-yl)methyl)thio)butanoic acid]",% Competition,SETD7,94.1%
same,% Competition,SMYD5,95.9%
same,% Competition,DPH5,50.0%
